Entries after “also recorded” stand apart in the source; their conditions may differ.
How the values were obtained:
[1] = Retention in blood after I.V. injection; assay type: in vivo; conditions: 30 minutes after I.V. injection
[2] = system: Philadelphia positive Z119 Acute lymphoblastic leukemia cells; test: In vivo treatment of Philadelphia positive ALL in NOD-SCID mice
Method: NOD-SCID mice were irradiated (350 rads) and injected with 5×10^6 Philadelphia positive Z119 Acute lymphoblastic leukemia cells. After 24 hours Alzet micro-osmotic pumps (Alza Corp. Paolo Alto, Calif.) were implanted subcuntaneously, containing either 20 mM solution of CR4 in 50% DMSO/medium or 50% DMSO/medium alone. Alzet 2001 pumps were utilized, holding a total volume of 200 μl and releasing 1 μl per hour over 7-10 days. Pumps were replaced after 7 days. Each mouse received a daily dose of 0.154 mg of CR4.
After 14 (FIG. 20A) and 21 (FIG. 20B) days mice were sacrificed and bone marrow extracted from the fore and hind limbs. Single cell suspensions were prepared, red blood cells lysed and the samples stained with PE-labelled isotype, anti-human CD19 and anti-human HLA-DR antibodies to detect the presence of Z119 cells.
At d14, bone marrow cell cultures were also performed to assess the presence of Z119 cells 5×10^4 BM cells were cultured in IMDM (OCl, Toronto) containing 0.9% (vol/vol) methylcellulose supplemented with 30% serum consisting of a 1:1 mixture of FCS (Cansera Rexdale, ON.) and normal human plasma. No cytokines are added. Under these conditions there is no growth of murine cells. The culture mixture was plated in 1 ml volumes into 35 mm petri dishes and incubated at 37° C., 5% CO2 in a humidified atmosphere. All cultures were evaluated at 9 days for the number of ALL colonies.

[3] = system: Ramos B cell Burkitt's lymphoma cells; test: In vitro purging of Ramos B cell Burkitt's lymphoma cells; assay type: cell-based; conditions: 50 μM, 5 hours exposure (FIG. 18)
Method: (§1) For the purging assay, the cells were resuspended in complete medium with or without CR4 as indicated and incubated at 37° C., 5% CO2 for 0-5 hours. Cells were then washed thoroughly with medium to remove the CR4, resuspended and plated in 1 ml volumes, in the absence of exogenous growth factors, into 35 mm petri dishes (Nunc, Gibco) containing RPMI 1640 (Gibco) plus 10% FCS (Cansera Rexdale, ON.) in 0.9% (vol/vol) methylcellulose (Fluka, Switzerland). Cultures were set at 37° C., 5% CO2 in a humidified atmosphere. Colonies consisting of more than 20 cells were counted at 12 days or earlier using an inverted microscope.

OCl-LY2 lymphoma cells = test: In vitro purging of OCl-Ly2 lymphoma cells; assay type: cell-based; conditions: 5 hours exposure (FIG. 16)
Method: as §1, with “remove” for “remove the”, “volumes at 5×10^3 cells/ml,” for “volumes,”, “IMDM (OCl, Toronto)” for “RPMI 1640 (Gibco)”, “20% human cord blood plasma” for “10% FCS (Cansera Rexdale, ON.)”, “5” for “12”

normal bone marrow cells = test: In vitro purging of normal bone marrow, then colony assay; assay type: cell-based
Method: Heparinized bone marrow cells were layered over Percoll (1.077 gm/ml) (Pharmacia Fine Chemical, Piscataway N.J.) and centrifuged at 400 g at 4° C. for 10 minutes to remove neutrophils and RBCs.
For the purging process, the cells were resuspended at 1×10^6/ml in complete medium with or without 50 μM CR4. The cells were incubated with the CR4 for two and a half hours at 37° C., 5% CO2. At the end of this period the cells were thoroughly washed in medium to remove CR4 and then cultured at 2×10^5 cells/ml in IMDM (OCl, Toronto) containing 0.9% (vol/vol) methylcellulose supplemented with 30% FCS (Cansera Rexdale, ON.) or normal human plasma, a cocktail of cytokines containing G-CSF (10 ng/ml, Amgen), IL-3 (40 U/ml, Immunex), MGF (50 ng/ml, Immunex), Etryhropoietin (2 u/ml, Epprex) or TPO (10 ng/ml, Amgen) and 5×10^−5M b-2-mercaptoethanol. The culture mixture was plated in 1 ml volumes into 35 mm petri dishes and incubated at 37° C., 5% CO2 in a humidified atmosphere. All cultures were evaluated at 14 days for the number of BFU-E colonies (defined as aggregates of more than 500 hemaglobinized cells or, 3 or more erythroid subcolonies), CFU-C colonies (defined as granulocyte or monocyte-macrophage cells or both) and CFU-GEMM colonies (a mixed population comprising of all elements).
For the purging process, the cells were resuspended at 1×10^6/ml in complete medium with or without 50 μM CR11. The cells were incubated with the tryrphostin for seven hours at 37° C., 5% CO2. At the end of this period the cells were thoroughly washed in medium to remove CR11 and then cultured at 2×10^5 cells/ml in IMDM (OCl, Toronto) containing 0.9% (vol/vol) methylcellulose supplemented with 30% FCS (Cansera Rexdate, ON.) or normal human plasma, a cocktail of cytokines containing G-CSF (10 ng/ml, Amgen), IL-3 (40 U/ml, Immunex), MGF (50 ng/ml, Immunex), Erythropoietin (2 u/ml, Epprex) or TPO (10 ng/ml, Amgen) and 5×10^−5M β-2-mercaptoethanol. The culture mixture was plated in 1 ml volumes into 35 mm petri dishes and incubated at 37° C., 5% CO2 in a humidified atmosphere. All cultures were evaluated at 14 days for the number of BFU-E colonies (defined as aggregates of more than 500 hemoglobinized cells or, 3 or more erythroid subcolonies), CFU-C colonies (defined as granulocyte or monocyte-macrophage cells or both) and CFU-GEMM colonies (a mixed population comprising of all elements).

[4] = daily dose of 0.154 mg by subcutaneous Alzet pump
[5] = two and a half hours exposure to 50 μM (FIG. 14)

For `N#C/C(=C\C=C\c1ccc(O)c(O)c1)C(=O)NCc1ccccc1` [CR4, (E,E)-2-(benzylaminocarbonyl)-3-(3,4-dihydroxystyryl)acrylonitrile], the “retention: presence in the blood” value [1] was “still being detectable”, the “non-specific toxicity / damage to the animal” value ([2]; at the doses required to eliminate cancer cell growth) was “do not result in detectable non-specific damage; also recorded: No evidence of non-specific toxicity” and the “ALL infiltration of the organs (liver, kidney, spleen) and peripheral blood” value [2, 4] was “below detectable levels; also recorded: below detection level”. The “reduction in the infiltration of ALL cells into the bone marrow” value [2, 4] was 90%, the “ALL infiltration of the bone marrow relative to control mice” value ([2]; day 14 and day 21 sacrifices, daily dose of 0.154 mg by subcutaneous Alzet pump (FIGS. 20A, 20B)) was “significant reduction” and the “tumor load and infiltration of the organs by the ALL cells” value ([2]; murine model of human Ph+ ALL) was “efficiently reduced”. For the same molecule, the “reduction in ALL infiltration of bone marrow” value ([2]; within a two week period, murine model of human Ph+ ALL) was “greater than 90%”, the “killing of Ramos cells” value [3] was 70% and the “killing of OCl-Ly2 cells” value (OCl-LY2 lymphoma cells; 12.5 μM) was “significant killing”. The “killing of OCl-Ly2 cells” value (OCl-LY2 lymphoma cells; 25-50 μM) was 90%, the “normal bone marrow growth and differentiation” value (normal bone marrow cells; identical doses and times: 25-50 μM, 2.5 to 5 hour exposure) was “unaffected” and the BFU-E colonies (normal bone marrow cells; [5]) was “slight drop”. For the same molecule, the CFU-C colony numbers (normal bone marrow cells; [5]) was “increased significantly” and the “inhibition of colony formation” value (normal bone marrow cells; two and a half hours exposure to 50 μM, colonies at 14 days (FIG. 14)) was “did not result in significant inhibition”.
